{
  "source": "patent US12371454B2",
  "about": "“Cyclic peptide compound having Kras inhibitory action” (priority 2019, dated 2025)",
  "note": "Starred links: 1 amine or outer side, 2 acyl side, 3 side chain; linkers in the order of their positions; H or OH if unused. Positions of bridges follow the written chain, without caps; N, C: chain ends. Non-standard residues stand in square brackets, D forms with d. Residues, ends and D or L forms follow the SMILES beside them. *: point of attachment. hPhe(3,5-F2-4-CF3) = N[C@@H](CCc1cc(F)c(C(F)(F)F)c(F)c1)C(=O)O; hPhe(3-Cl-4-CF3) = N[C@@H](CCc1ccc(C(F)(F)F)c(Cl)c1)C(=O)O; hPhe(3-F,4-CF3) = N[C@@H](CCc1ccc(C(F)(F)F)c(F)c1)C(=O)O; NMePhe(4-CF3) = CN[C@@H](Cc1ccc(C(F)(F)F)cc1)C(=O)O; NMedβ3hAla = C[C@H](CC(=O)[*:2])N(C)[*:1]; NMeGly(cPent) = CN[C@H](C(=O)O)C1CCCC1; Pro(4,4-F2) = O=C(O)[C@@H]1CC(F)(F)CN1; NMeAla(cPr) = CN[C@@H](CC1CC1)C(=O)O; NMeCha = CN[C@@H](CC1CCCCC1)C(=O)O; Gly(N-(CH2)2OEt) = CCOCCNCC(=O)O; NMeChg = CN[C@H](C(=O)O)C1CCCCC1; NMeI = CC[C@H](C)[C@H](NC)C(=O)O; d(β3hL) = CC(C)C[C@@H](N)CC(=O)O; NMeD = CN[C@@H](CC(=O)O)C(=O)O; NMeL = CN[C@@H](CC(C)C)C(=O)O; NMeV = CN[C@H](C(=O)O)C(C)C; d(β3hA) = C[C@@H](N)CC(=O)O; NMeS = CN[C@@H](CO)C(=O)O; Morpholide = C1CN(*)CCO1; NMeA = CN[C@@H](C)C(=O)O; Piperidide = C1CCN(*)CC1; Pyrrolidide = C1CCN(*)C1; Ac5c = NC1(C(=O)O)CCCC1; Aze = O=C(O)[C@@H]1CCN1; CH2CMe2OH = CC(C)(O)C*; Cyclobutyl = C1CC(*)C1; Sar = CNCC(=O)O; Propyl = CCC*",
  "data": [
    {"system": "Human pancreatic cancer cell line AsPC-1", "assay": "Measurement of AsPC-1 cell growth inhibition (AsPC-1 CGI)", "type": "cell-based", "conditions": "96 h", "outline": "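AsPC-1 cells in 15% FBS RPMI-1640 were exposed to test compound for 96 hours at 37° C, with CellTiter-Glo as endpoint.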", "units": {"IC50": "nM"}, "values": [
      {"smiles": "CC[C@H](C)[C@@H]1NC(=O)[C@H](CC2CC2)N(C)C(=O)C[C@@H](C)NC(=O)[C@H](C(C)C)N(C)C(=O)C2(CCCC2)NC(=O)[C@@H]2CCCN2C(=O)[C@H](CCc2ccc(C(F)(F)F)c(Cl)c2)NC(=O)CN(C)C(=O)[C@H](CC2CCCCC2)N(C)C(=O)[C@@H]2CCN2C(=O)[C@H](C)N(C)C1=O", "note": "[Compound 771] (cyclo([Ac5c][NMeV][d(β3hA)][NMeAla(cPr)]I[NMeA][Aze][NMeCha][Sar][hPhe(3-Cl-4-CF3)]P))", "IC50": "100 to 500"},
      {"smiles": "CCCOC[C@H]1C(=O)N(C)CC(=O)N[C@@H](CCc2ccc(C(F)(F)F)c(F)c2)C(=O)N2CCC[C@H]2C(=O)NC2(CCCC2)C(=O)N(C)[C@@H](C2CCCC2)C(=O)N(C)[C@H](C)CC(=O)N(C)[C@@H](CC(C)C)C(=O)N[C@@H]([C@@H](C)CC)C(=O)N(C)[C@@H](C)C(=O)N2CC[C@H]2C(=O)N1C", "note": "[Compound 776] (cyclo([Ac5c][NMeGly(cPent)][NMedβ3hAla][NMeL]I[NMeA][Aze][NMeS](Propyl)[Sar][hPhe(3-F,4-CF3)]P))", "IC50": "20 to 50"},
      {"smiles": "CC[C@H](C)[C@@H]1NC(=O)[C@H](CC(C)C)N(C)C(=O)C[C@@H](C(=O)N2CCCCC2)N(C)C(=O)[C@H](C2CCCCC2)N(C)C(=O)C2(CCCC2)NC(=O)[C@H](COCC(C)(C)O)N(C)C(=O)[C@H](CCc2ccc(C(F)(F)F)c(Cl)c2)NC(=O)CN(C)C(=O)[C@H](CC2CCCCC2)N(C)C(=O)CN(C)C(=O)CN(C)C1=O", "note": "[Compound 789] ([NMeL]I[Sar][Sar][NMeCha][Sar][hPhe(3-Cl-4-CF3)][NMeS](CH2CMe2OH)[Ac5c][NMeChg][NMeD]-Piperidide; lactam N-11)", "IC50": "100 to 500"},
      {"smiles": "CC[C@H](C)[C@@H]1NC(=O)[C@H](CC(C)C)N(C)C(=O)C[C@@H](C(=O)N2CCOCC2)N(C)C(=O)[C@H]([C@@H](C)CC)N(C)C(=O)C2(CCCC2)NC(=O)[C@@H]2CCCN2C(=O)[C@H](CCc2ccc(C(F)(F)F)c(F)c2)NC(=O)CN(C)C(=O)[C@H](CC2CCCCC2)N(C)C(=O)[C@@H]2CCN2C(=O)[C@H](C)N(C)C1=O", "note": "[Compound 790] ([NMeL]I[NMeA][Aze][NMeCha][Sar][hPhe(3-F,4-CF3)]P[Ac5c][NMeI][NMeD]-Morpholide; lactam N-11)", "IC50": "20 to 50"},
      {"smiles": "CC[C@H](C)[C@@H]1NC(=O)[C@H](CC(C)C)N(C)C(=O)C[C@@H](CC(C)C)NC(=O)[C@H]([C@@H](C)CC)N(C)C(=O)C2(CCCC2)NC(=O)[C@@H]2CCCN2C(=O)[C@H](CCc2ccc(C(F)(F)F)c(Cl)c2)NC(=O)CN(C)C(=O)[C@H](CC2CCCCC2)N(C)C(=O)[C@@H]2CCN2C(=O)[C@H](C)N(C)C1=O", "note": "[Compound 798] (cyclo([Ac5c][NMeI][d(β3hL)][NMeL]I[NMeA][Aze][NMeCha][Sar][hPhe(3-Cl-4-CF3)]P))", "IC50": "100 to 500"},
      {"smiles": "CC[C@H](C)[C@@H]1NC(=O)[C@H](CC(C)C)N(C)C(=O)C[C@@H](C(=O)N2CCCCC2)N(C)C(=O)[C@H]([C@@H](C)CC)N(C)C(=O)C2(CCCC2)NC(=O)[C@@H]2CCCN2C(=O)[C@H](CCc2ccc(C(F)(F)F)c(Cl)c2)NC(=O)CN(C)C(=O)[C@H](C2CCCC2)N(C)C(=O)[C@@H]2CCN2C(=O)[C@H](C)N(C)C1=O", "note": "[Compound 807] ([NMeL]I[NMeA][Aze][NMeGly(cPent)][Sar][hPhe(3-Cl-4-CF3)]P[Ac5c][NMeI][NMeD]-Piperidide; lactam N-11)", "IC50": "20 to 50"},
      {"smiles": "CCCOC[C@H]1C(=O)N(C)CC(=O)N[C@@H](CCc2ccc(C(F)(F)F)c(F)c2)C(=O)N2CCC[C@H]2C(=O)NC2(CCCC2)C(=O)N(C)[C@@H]([C@@H](C)CC)C(=O)N(C)[C@H](C(=O)N2CCOCC2)CC(=O)N(C)[C@@H](CC(C)C)C(=O)N[C@@H]([C@@H](C)CC)C(=O)N(C)[C@@H](C)C(=O)N2CC[C@H]2C(=O)N1C", "note": "[Compound 827] ([NMeL]I[NMeA][Aze][NMeS](Propyl)[Sar][hPhe(3-F,4-CF3)]P[Ac5c][NMeI][NMeD]-Morpholide; lactam N-11)", "IC50": "20 to 50"},
      {"smiles": "CC[C@H](C)[C@@H]1NC(=O)[C@H](CC(C)C)N(C)C(=O)C[C@@H](C)N(C)C(=O)[C@H]([C@@H](C)CC)N(C)C(=O)C2(CCCC2)NC(=O)[C@@H]2CCCN2C(=O)[C@H](CCc2ccc(C(F)(F)F)c(F)c2)NC(=O)CN(C)C(=O)[C@H](CC2CCCCC2)N(C)C(=O)[C@@H]2CCN2C(=O)[C@H](C)N(C)C1=O", "note": "[Compound 859] (cyclo([Ac5c][NMeI][NMedβ3hAla][NMeL]I[NMeA][Aze][NMeCha][Sar][hPhe(3-F,4-CF3)]P))", "IC50": "50 to 100"},
      {"smiles": "CC[C@H](C)[C@@H]1NC(=O)[C@H](CC(C)C)N(C)C(=O)C[C@@H](C(=O)N2CCCC2)N(C)C(=O)[C@H]([C@@H](C)CC)N(C)C(=O)C2(CCCC2)NC(=O)[C@@H]2CCCN2C(=O)[C@H](CCc2ccc(C(F)(F)F)c(F)c2)NC(=O)CN(C)C(=O)[C@H](CC2CCCCC2)N(C)C(=O)[C@@H]2CCN2C(=O)[C@H](C)N(C)C1=O", "note": "[Compound 868] ([NMeL]I[NMeA][Aze][NMeCha][Sar][hPhe(3-F,4-CF3)]P[Ac5c][NMeI][NMeD]-Pyrrolidide; lactam N-11)", "IC50": "20 to 50"},
      {"smiles": "CCOCCN1CC(=O)NC2(CCCC2)C(=O)N(C)[C@@H](C2CCCCC2)C(=O)N(C)[C@H](C(=O)N2CCCCC2)CC(=O)N(C)[C@@H](CC(C)C)C(=O)N[C@@H]([C@@H](C)CC)C(=O)N(C)CC(=O)N(C)CC(=O)N(C)[C@@H](CC2CCCCC2)C(=O)N(C)CC(=O)N[C@@H](CCc2ccc(C(F)(F)F)c(Cl)c2)C1=O", "note": "[Compound 872] ([NMeL]I[Sar][Sar][NMeCha][Sar][hPhe(3-Cl-4-CF3)][Gly(N-(CH2)2OEt)][Ac5c][NMeChg][NMeD]-Piperidide; lactam N-11)", "IC50": "100 to 500"},
      {"smiles": "CC[C@H](C)[C@@H]1NC(=O)[C@H](C2CCCCC2)N(C)C(=O)C[C@@H](C)NC(=O)[C@H](C(C)C)N(C)C(=O)C2(CCCC2)NC(=O)[C@@H]2CCCN2C(=O)[C@H](CCc2ccc(C(F)(F)F)c(Cl)c2)NC(=O)CN(C)C(=O)[C@H](CC2CCCCC2)N(C)C(=O)[C@@H]2CCN2C(=O)[C@H](C)N(C)C1=O", "note": "[Compound 873] (cyclo([Ac5c][NMeV][d(β3hA)][NMeChg]I[NMeA][Aze][NMeCha][Sar][hPhe(3-Cl-4-CF3)]P))", "IC50": "100 to 500"},
      {"smiles": "CC[C@H](C)[C@@H]1NC(=O)[C@H](CC(C)C)N(C)C(=O)C[C@@H](C(=O)N2CCCCC2)N(C)C(=O)[C@H]([C@@H](C)CC)N(C)C(=O)C2(CCCC2)NC(=O)[C@@H]2CCCN2C(=O)[C@H](CCc2ccc(C(F)(F)F)c(Cl)c2)NC(=O)CN(C)C(=O)[C@H](COC2CCC2)N(C)C(=O)[C@@H]2CCN2C(=O)[C@H](C)N(C)C1=O", "note": "[Compound 885] ([NMeL]I[NMeA][Aze][NMeS](Cyclobutyl)[Sar][hPhe(3-Cl-4-CF3)]P[Ac5c][NMeI][NMeD]-Piperidide; lactam N-11)", "IC50": "20 to 50"},
      {"smiles": "CC[C@H](C)[C@@H]1NC(=O)[C@H](CC(C)C)N(C)C(=O)C[C@@H](C)N(C)C(=O)[C@H](C2CCCC2)N(C)C(=O)C2(CCCC2)NC(=O)[C@@H]2CC(F)(F)CN2C(=O)[C@H](CCc2cc(F)c(C(F)(F)F)c(F)c2)NC(=O)CN(C)C(=O)[C@H](Cc2ccc(C(F)(F)F)cc2)N(C)C(=O)[C@@H]2CCN2C(=O)[C@H](C)N(C)C1=O", "note": "[Compound 900] (cyclo([Ac5c][NMeGly(cPent)][NMedβ3hAla][NMeL]I[NMeA][Aze][NMePhe(4-CF3)][Sar][hPhe(3,5-F2-4-CF3)][Pro(4,4-F2)]))", "IC50": "20 to 50"}
    ]}
  ]
}
